Like-named read-outs stand apart in the source and are kept apart here. Starred links: 1 amine or outer side, 2 acyl side, 3 side chain; linkers in the order of their positions; H or OH if unused. Positions of bridges follow the written chain, without caps; N, C: chain ends. Non-standard residues stand in square brackets, D forms with d. Residues, ends and D or L forms follow the SMILES beside them. *: point of attachment. X64 = O=C(O)CCC(=O)Nc1ccc(-c2ccc(C[C@H](N[*:1])C(=O)[*:2])cc2)cc1; Bip(4'-NH) = O=C([C@H](Cc1ccc(-c2ccc(N[*:3])cc2)cc1)N[*:1])[*:2]; Indazole3carbonyl(1-CH2COOH) = O=C(O)Cn1nc(C(=O)*)c2ccccc21; Bip(4'-COOH) = N[C@@H](Cc1ccc(-c2ccc(C(=O)O)cc2)cc1)C(=O)O; Bip(4'-NHAc) = CC(=O)Nc1ccc(-c2ccc(C[C@H](N)C(=O)O)cc2)cc1; X25 = N=C(N)Nc1cccc(CNC(=N)NCCC[C@@H](N[*:1])C(=O)[*:2])c1; X28 = N=C(NCCC[C@@H](N[*:1])C(=O)[*:2])NCc1ccc(CN)cc1; X51 = N=C(NCCC[C@@H](N[*:1])C(=O)[*:2])NCCc1ccccc1; Ala(morpholin-4-yl) = N[C@@H](CN1CCOCC1)C(=O)O; Phe(3-CONH2) = NC(=O)c1cccc(C[C@H](N)C(=O)O)c1; Bip = N[C@@H](Cc1ccc(-c2ccccc2)cc1)C(=O)O; Pro(4S-NH2) = N[C@@H]1CN[C@H](C(=O)O)C1; Tiq1c(1S) = O=C(O)[C@H]1NCCc2ccccc21; Val(3-OH) = CC(C)(O)[C@H](N)C(=O)O; 2Pal = N[C@@H](Cc1ccccn1)C(=O)O; Cha = N[C@@H](CC1CCCCC1)C(=O)O; Chg = N[C@H](C(=O)O)C1CCCCC1; Orn = NCCC[C@H](N)C(=O)O; Sar = CNCC(=O)O
Target: TNFα (Homo sapiens, UniProt P01375)
Assay: TNF-Induced HEK-Blue Assay
Assay type: cell-based
[1] = HEK-Blue-CD40L cells, NF-kB-driven secreted alkaline phosphatase reporter, TNFα 0.5 ng/ml, 18 h, read-out: TNF induced HEK-Blue assay IC50 value

TNFα, sequence (P01375 77-233 limits assumed): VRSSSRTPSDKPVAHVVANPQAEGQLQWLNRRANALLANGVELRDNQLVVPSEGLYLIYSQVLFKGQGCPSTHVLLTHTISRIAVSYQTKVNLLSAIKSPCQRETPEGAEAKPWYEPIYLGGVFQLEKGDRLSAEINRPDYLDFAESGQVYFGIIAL

SMILES	IC50 [1] [nM]	IC50 [nM]
CC(=O)Nc1ccc(-c2ccc(C[C@@H]3NC(=O)[C@H](Cc4ccc(-c5ccc(C(=O)O)cc5)cc4)NC(=O)[C@H](CN4CCOCC4)NC(=O)CSC[C@@H](C(=O)NCC(N)=O)NC(=O)[C@H](CC(C)C)NC(=O)[C@H](Cc4cccc(C(N)=O)c4)NC(=O)[C@H](C(C)C)NC(=O)[C@@H]4CCCN4C(=O)[C@H](C(C)C)NC(=O)[C@@H](CCCNC(=N)N)NC(=O)[C@H](CC(=O)O)NC(=O)[C@H](Cc4ccccn4)NC(=O)CN(C)C3=O)cc2)cc1 [Example 200] ({CH2CO}-[Ala(morpholin-4-yl)][Bip(4'-COOH)][Bip(4'-NHAc)][Sar][2Pal]D[dR]VPV[Phe(3-CONH2)]LCG-NH2; thioether N-13)	50 to 200	–
CC(C)C[C@@H]1NC(=O)[C@H](CCCNC(=N)N)NC(=O)[C@H](C(C)C)NC(=O)[C@@H]2CCCN2C(=O)[C@H](C(C)C)NC(=O)[C@@H](CCCNC(=N)NCc2cccc(NC(=N)N)c2)NC(=O)[C@H](CC(=O)O)NC(=O)[C@@H]2CCCN2C(=O)CN(C)C(=O)[C@H](Cc2ccc(-c3ccc(NC(=O)c4nn(CC(=O)O)c5ccccc45)cc3)cc2)NC(=O)[C@H](Cc2ccc(-c3ccccc3)cc2)NC(=O)[C@H](CN2CCOCC2)NC(=O)CSC[C@@H](C(=O)NCC(N)=O)NC1=O [Example 435] ({CH2CO}-[Ala(morpholin-4-yl)][Bip][Bip(4'-NH)](Indazole3carbonyl(1-CH2COOH))[Sar]PD[X25]VPVRLCG-NH2; thioether N-13)	–	< 50
CC(C)C[C@@H]1NC(=O)[C@H](CCCNC(=N)N)NC(=O)[C@H](C(C)C)NC(=O)[C@@H]2CCCN2C(=O)[C@H](C(C)C)NC(=O)[C@@H](CCCNC(=N)NCCc2ccccc2)NC(=O)[C@H](CC(=O)O)NC(=O)[C@@H]2CCCN2C(=O)CN(C)C(=O)[C@H](Cc2ccc(-c3ccc(NC(=O)c4nn(CC(=O)O)c5ccccc45)cc3)cc2)NC(=O)[C@H](Cc2ccc(-c3ccccc3)cc2)NC(=O)[C@H](CN2CCOCC2)NC(=O)CSC[C@@H](C(=O)NCC(N)=O)NC1=O [Example 365] ({CH2CO}-[Ala(morpholin-4-yl)][Bip][Bip(4'-NH)](Indazole3carbonyl(1-CH2COOH))[Sar]PD[X51]VPVRLCG-NH2; thioether N-13)	–	< 50
CC(C)C[C@@H]1NC(=O)[C@H](CCCNC(=N)N)NC(=O)[C@H](C(C)C)NC(=O)[C@@H]2CCCN2C(=O)[C@H](C(C)C)NC(=O)[C@@H](CCCNC(=N)NCc2ccc(CN)cc2)NC(=O)[C@H](CC(=O)O)NC(=O)[C@@H]2CCCN2C(=O)CN(C)C(=O)[C@H](Cc2ccc(-c3ccc(NC(=O)c4nn(CC(=O)O)c5ccccc45)cc3)cc2)NC(=O)[C@H](Cc2ccc(-c3ccccc3)cc2)NC(=O)[C@H](CN2CCOCC2)NC(=O)CSC[C@@H](C(=O)NCC(N)=O)NC1=O [Example 501] ({CH2CO}-[Ala(morpholin-4-yl)][Bip][Bip(4'-NH)](Indazole3carbonyl(1-CH2COOH))[Sar]PD[X28]VPVRLCG-NH2; thioether N-13)	–	50 to 200
CC(C)C[C@@H]1NC(=O)[C@H](Cc2ccc(O)cc2)NC(=O)[C@H](C(C)C)NC(=O)[C@@H]2CCCN2C(=O)[C@H](C(C)C)NC(=O)[C@@H](CCCNC(=N)N)NC(=O)[C@H](CC(=O)O)NC(=O)[C@H](Cc2ccc(O)cc2)NC(=O)CNC(=O)[C@H](Cc2ccc(-c3ccccc3)cc2)NC(=O)[C@H](Cc2ccc(-c3ccccc3)cc2)NC(=O)[C@H](CN2CCOCC2)NC(=O)CSC[C@@H](C(=O)NCC(N)=O)NC1=O [Example 131] ({CH2CO}-[Ala(morpholin-4-yl)][Bip][Bip]GYD[dR]VPVYLCG-NH2; thioether N-13)	50 to 200	–
CC(=O)Nc1ccc(-c2ccc(C[C@@H]3NC(=O)[C@H](Cc4ccc(-c5ccc(C(=O)O)cc5)cc4)NC(=O)[C@H](CN4CCOCC4)NC(=O)CSC[C@@H](C(=O)NCC(N)=O)NC(=O)[C@H](CC(C)C)NC(=O)[C@H](Cc4ccccc4)NC(=O)[C@H](C(C)C)NC(=O)[C@@H]4CCCN4C(=O)[C@H](C(C)C)NC(=O)[C@@H](CCCNC(=N)N)NC(=O)[C@H](CC(=O)O)NC(=O)[C@H](Cc4ccccc4)NC(=O)CN(C)C3=O)cc2)cc1 [Example 225] ({CH2CO}-[Ala(morpholin-4-yl)][Bip(4'-COOH)][Bip(4'-NHAc)][Sar]FD[dR]VPVFLCG-NH2; thioether N-13)	50 to 200	–
CC(=O)Nc1ccc(-c2ccc(C[C@@H]3NC(=O)[C@H](Cc4ccc(-c5ccccc5)cc4)NC(=O)[C@H](CN4CCOCC4)NC(=O)CSC[C@@H](C(=O)NCC(N)=O)NC(=O)[C@H](CC(C)C)NC(=O)[C@H](Cc4cccc(C(N)=O)c4)NC(=O)[C@H](C(C)C)NC(=O)[C@@H]4CCCN4C(=O)[C@H](C(C)C)NC(=O)[C@@H](CCCNC(=N)N)NC(=O)[C@H](CC(=O)O)NC(=O)[C@H](Cc4ccccc4)NC(=O)CN(C)C3=O)cc2)cc1 [Example 455] ({CH2CO}-[Ala(morpholin-4-yl)][Bip][Bip(4'-NHAc)][Sar]FD[dR]VPV[Phe(3-CONH2)]LCG-NH2; thioether N-13)	50 to 200	–
CC(=O)Nc1ccc(-c2ccc(C[C@@H]3NC(=O)[C@H](Cc4ccc(-c5ccc(C(=O)O)cc5)cc4)NC(=O)[C@H](CC4CCCCC4)NC(=O)CSC[C@@H](C(=O)NCC(N)=O)NC(=O)[C@H](CC(C)C)NC(=O)[C@H](Cc4ccc(O)cc4)NC(=O)[C@H](C(C)C)NC(=O)[C@@H]4c5ccccc5CCN4C(=O)[C@H](C(C)C)NC(=O)[C@@H](CCCNC(=N)N)NC(=O)[C@H](CC(=O)O)NC(=O)[C@@H]4CCCN4C(=O)CN(C)C3=O)cc2)cc1 [Example 278] ({CH2CO}-[Cha][Bip(4'-COOH)][Bip(4'-NHAc)][Sar]PD[dR]V[Tiq1c(1S)]VYLCG-NH2; thioether N-13)	–	50 to 200
CC(C)C[C@@H]1NC(=O)[C@H](Cc2ccc(O)cc2)NC(=O)[C@H](C(C)C)NC(=O)[C@@H]2CCCN2C(=O)[C@H](Cc2ccc(O)cc2)NC(=O)[C@H](CCCNC(=N)N)NC(=O)[C@H](CC(=O)O)NC(=O)[C@@H]2CCCN2C(=O)CN(C)C(=O)[C@H](Cc2ccc(-c3ccccc3)cc2)NC(=O)[C@H](Cc2ccc(-c3ccccc3)cc2)NC(=O)[C@H](C(C)(C)O)NC(=O)CSC[C@@H](C(=O)NCC(N)=O)NC1=O [Example 111] ({CH2CO}-[Val(3-OH)][Bip][Bip][Sar]PDRYPVYLCG-NH2; thioether N-13)	200 to 2000	–

The next lines start with results.

IC50 [1] [nM]	SMILES	IC50 [nM]
200 to 2000	CC(C)C[C@@H]1NC(=O)[C@H](Cc2ccccc2)NC(=O)[C@H](C(C)C)NC(=O)[C@@H]2CCCN2C(=O)[C@H](C(C)C)NC(=O)[C@@H](CCCNC(=N)N)NC(=O)[C@H](CC(=O)O)NC(=O)[C@H](Cc2ccccc2)NC(=O)CN(C)C(=O)[C@H](Cc2ccc(-c3ccccc3)cc2)NC(=O)[C@H](Cc2ccc(-c3ccc(C(=O)O)cc3)cc2)NC(=O)[C@H](CN2CCOCC2)NC(=O)CSC[C@@H](C(=O)NCC(N)=O)NC1=O [Example 216] ({CH2CO}-[Ala(morpholin-4-yl)][Bip(4'-COOH)][Bip][Sar]FD[dR]VPVFLCG-NH2; thioether N-13)	–
200 to 2000	CC(C)C[C@@H]1NC(=O)[C@H](CCCN)NC(=O)[C@H](C(C)C)NC(=O)[C@@H]2CCCN2C(=O)[C@H](C(C)C)NC(=O)[C@H](CCCNC(=N)N)NC(=O)[C@H](CC(=O)O)NC(=O)[C@@H]2CCCN2C(=O)CN(C)C(=O)[C@H](Cc2ccc(-c3ccccc3)cc2)NC(=O)[C@H](Cc2ccc(-c3ccccc3)cc2)NC(=O)[C@H](Cc2ccccc2)NC(=O)CSC[C@@H](C(=O)NCC(N)=O)NC1=O [Example 2] ({CH2CO}-F[Bip][Bip][Sar]PDRVPV[Orn]LCG-NH2; thioether N-13)	–
< 50	CC(=O)Nc1ccc(-c2ccc(C[C@@H]3NC(=O)[C@H](Cc4ccc(-c5ccccc5)cc4)NC(=O)[C@H](CN4CCOCC4)NC(=O)CSC[C@@H](C(=O)NCC(N)=O)NC(=O)[C@H](CC(C)C)NC(=O)[C@H](Cc4ccc(O)cc4)NC(=O)[C@H](C(C)C)NC(=O)[C@@H]4CCCN4C(=O)[C@H](C(C)C)NC(=O)[C@@H](CCCNC(=N)N)NC(=O)[C@H](CC(=O)O)NC(=O)[C@@H]4C[C@H](N)CN4C(=O)CN(C)C3=O)cc2)cc1 [Example 184] ({CH2CO}-[Ala(morpholin-4-yl)][Bip][Bip(4'-NHAc)][Sar][Pro(4S-NH2)]D[dR]VPVYLCG-NH2; thioether N-13)	–
50 to 200	CC(=O)Nc1ccc(-c2ccc(C[C@@H]3NC(=O)[C@H](Cc4ccc(-c5ccc(C(=O)O)cc5)cc4)NC(=O)[C@H](CN4CCOCC4)NC(=O)CSC[C@@H](C(=O)NCC(N)=O)NC(=O)[C@H](CC(C)C)NC(=O)[C@H](Cc4ccc(O)cc4)NC(=O)[C@H](C4CCCCC4)NC(=O)[C@@H]4CCCN4C(=O)[C@H](C(C)C)NC(=O)[C@@H](CCCNC(=N)N)NC(=O)[C@H](CC(=O)O)NC(=O)[C@@H]4CCCN4C(=O)CN(C)C3=O)cc2)cc1 [Example 237] ({CH2CO}-[Ala(morpholin-4-yl)][Bip(4'-COOH)][Bip(4'-NHAc)][Sar]PD[dR]VP[Chg]YLCG-NH2; thioether N-13)	–
200 to 2000	CC(C)C[C@@H]1NC(=O)[C@H](CCCNC(=N)N)NC(=O)[C@H](Cc2ccccc2)NC(=O)[C@@H]2CCCN2C(=O)[C@H](C(C)C)NC(=O)[C@@H](CCCNC(=N)N)NC(=O)[C@H](CC(=O)O)NC(=O)[C@@H]2CCCN2C(=O)CN(C)C(=O)[C@H](Cc2ccc(-c3ccccc3)cc2)NC(=O)[C@H](Cc2ccc(-c3ccccc3)cc2)NC(=O)[C@H](CN2CCOCC2)NC(=O)CSC[C@@H](C(=O)NCC(N)=O)NC1=O [Example 104] ({CH2CO}-[Ala(morpholin-4-yl)][Bip][Bip][Sar]PD[dR]VPFRLCG-NH2; thioether N-13)	–
50 to 200	CC[C@H](C)[C@@H]1NC(=O)[C@@H](CCCNC(=N)N)NC(=O)[C@H](CC(=O)O)NC(=O)[C@H](Cc2cnc[nH]2)NC(=O)CN(C)C(=O)[C@H](Cc2ccc(-c3ccc(NC(=O)CCC(=O)O)cc3)cc2)NC(=O)[C@H](Cc2ccc(-c3ccccc3)cc2)NC(=O)[C@H](CC2CCCCC2)NC(=O)CSC[C@@H](C(=O)NCC(N)=O)NC(=O)[C@H](CC(C)C)NC(=O)[C@H](Cc2cnc[nH]2)NC(=O)[C@H](C(C)C)NC(=O)[C@@H]2CCCN2C1=O [Example 323] ({CH2CO}-[Cha][Bip][X64][Sar]HD[dR]IPVHLCG-NH2; thioether N-13)	–
